Assay results from the supplement of paper PMC10307832.

Key:
Assay in all cases: relative viability (nuclei count vs DMSO), 5 days (fraction); higher = more cells survive
AZ505 + Lapatinib = compound: C1CCC(CC1)N(CCNCCC2=C3C(=C(C=C2)O)NC(=O)CO3)C(=O)CCNCCC4=CC(=C(C=C4)Cl)Cl [AZ505] + CS(=O)(=O)CCNCc1ccc(-c2ccc3ncnc(Nc4ccc(OCc5cccc(F)c5)c(Cl)c4)c3c2)o1 [Lapatinib] (partner 2 µM)
In short: (§1)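 Relative viability equals treated-well nuclei counts divided by vehicle-well nuclei counts. Counts came from 4× images of lung cancer cell lines grown in 1536-well plates for 5 days after pin-tool dosing on the day after seeding. Dosing used one drug alone or a fixed anchor-drug dose plus five library-drug doses (not always all listed) in √10 steps, and values are medians of duplicate plates.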

AZ505 + Pictilisib = compound: C1CCC(CC1)N(CCNCCC2=C3C(=C(C=C2)O)NC(=O)CO3)C(=O)CCNCCC4=CC(=C(C=C4)Cl)Cl [AZ505] + CS(=O)(=O)N1CCN(Cc2cc3nc(-c4cccc5[nH]ncc45)nc(N4CCOCC4)c3s2)CC1 [Pictilisib] (partner 1 µM)
In short: as §1

Dactolisib + Lapatinib = compound: Cn1c(=O)n(-c2ccc(C(C)(C)C#N)cc2)c2c3cc(-c4cnc5ccccc5c4)ccc3ncc21 [Dactolisib] + CS(=O)(=O)CCNCc1ccc(-c2ccc3ncnc(Nc4ccc(OCc5cccc(F)c5)c(Cl)c4)c3c2)o1 [Lapatinib] (partner 2 µM)
In short: as §1

Dactolisib + Alpelisib = compound: Cn1c(=O)n(-c2ccc(C(C)(C)C#N)cc2)c2c3cc(-c4cnc5ccccc5c4)ccc3ncc21 [Dactolisib] + Cc1nc(NC(=O)N2CCC[C@H]2C(N)=O)sc1-c1ccnc(C(C)(C)C(F)(F)F)c1 [Alpelisib] (partner 2 µM)
In short: as §1

| Cell Line | relative viability (AZ505 + Lapatinib; first compound 0.08 µM) | relative viability (AZ505 + Lapatinib; first compound 0.253 µM) | relative viability (AZ505 + Lapatinib; first compound 0.8 µM) | relative viability (AZ505 + Lapatinib; first compound 2.53 µM) | relative viability (AZ505 + Lapatinib; first compound 8 µM) | relative viability (AZ505 + Pictilisib; first compound 0.08 µM) | relative viability (AZ505 + Pictilisib; first compound 0.253 µM) | relative viability (AZ505 + Pictilisib; first compound 0.8 µM) | relative viability (AZ505 + Pictilisib; first compound 2.53 µM) | relative viability (AZ505 + Pictilisib; first compound 8 µM) | relative viability (Dactolisib + Lapatinib; first compound 0.002 µM) | relative viability (Dactolisib + Lapatinib; first compound 0.006325 µM) | relative viability (Dactolisib + Lapatinib; first compound 0.02 µM) | relative viability (Dactolisib + Lapatinib; first compound 0.06325 µM) | relative viability (Dactolisib + Lapatinib; first compound 0.2 µM) | relative viability (Dactolisib + Alpelisib; first compound 0.002 µM) | relative viability (Dactolisib + Alpelisib; first compound 0.006325 µM) | relative viability (Dactolisib + Alpelisib; first compound 0.02 µM) | relative viability (Dactolisib + Alpelisib; first compound 0.06325 µM) | relative viability (Dactolisib + Alpelisib; first compound 0.2 µM) |
| --- | --- | --- | --- | --- | --- | --- | --- | --- | --- | --- | --- | --- | --- | --- | --- | --- | --- | --- | --- | --- |
| PC-3 [JPC-3] | 0.456 | 0.455 | 0.476 | 0.426 | 0.495 | 0.597 | 0.702 | 0.676 | 0.706 | 0.827 | 0.486 | 0.492 | 0.44 | 0.456 | 0.361 | 1.15 | 1.02 | 0.977 | 0.78 | 0.641 |
| BEN | 0.645 | 0.69 | 0.728 | 0.718 | 1.02 | 0.498 | 0.611 | 0.565 | 0.599 | 0.622 | 0.882 | 0.624 | 0.657 | 0.408 | 0.274 | 1.01 | 0.89 | 0.808 | 0.47 | 0.277 |
| NCI-H1666 | 0.532 | 0.544 | 0.531 | 0.614 | 0.518 | 0.442 | 0.404 | 0.421 | 0.408 | 0.456 | 0.723 | 0.559 | 0.691 | 0.318 | 0.391 | 1.08 | 0.83 | 0.806 | 0.506 | 0.402 |
| LC-2-ad | 0.949 | 0.957 | 0.92 | 1 | 0.921 | 0.427 | 0.422 | 0.465 | 0.515 | 0.508 | 1.01 |  | 1.06 | 0.728 | 0.437 | 0.916 |  | 0.817 | 0.64 | 0.533 |
| SW 1573 | 1.03 | 1.04 | 1.15 | 1.17 | 1.09 | 0.456 | 0.514 | 0.422 | 0.467 | 0.571 | 1.13 | 1.08 | 1.04 | 0.458 | 0.367 | 0.94 | 0.784 | 0.682 | 0.322 | 0.33 |
| COR-L 105 | 0.344 | 0.302 | 0.349 | 0.339 | 0.372 | 0.368 | 0.391 | 0.375 | 0.355 | 0.497 | 0.311 | 0.355 | 0.363 | 0.267 | 0.35 | 1.02 | 0.915 | 1.12 | 0.436 | 0.297 |
| NCI-H1975 | 0.773 | 0.82 | 0.858 | 0.9 | 0.885 | 0.264 | 0.303 | 0.267 | 0.277 | 0.283 | 0.796 | 0.767 | 0.643 | 0.327 | 0.284 | 0.612 | 0.549 | 0.396 | 0.238 | 0.201 |
| Calu-6 | 0.925 | 1.17 | 1.07 | 1.02 | 1.11 | 0.835 | 0.989 | 0.884 | 0.905 | 0.867 | 1.18 | 1.08 | 0.98 | 0.645 | 0.531 | 0.99 | 0.897 | 0.694 | 0.401 | 0.338 |
| NCI-H1993 | 0.838 | 0.764 | 0.871 | 0.782 | 0.941 | 0.679 | 0.798 | 0.807 | 0.768 | 0.776 | 0.784 | 0.714 | 0.843 | 0.601 | 0.651 | 0.711 | 0.561 | 0.754 | 0.694 | 0.684 |
| RERF-LC-KJ | 0.767 | 0.923 | 0.846 | 0.87 | 0.795 | 0.578 | 0.591 | 0.448 | 0.565 | 0.666 | 0.901 | 0.823 | 0.829 | 0.53 | 0.418 | 0.806 | 0.818 | 0.742 | 0.543 | 0.551 |
| NCI-H23 | 1.02 |  | 0.984 | 1.23 | 1.15 | 0.402 |  | 0.582 | 0.416 | 0.478 | 1.15 | 1.1 | 0.886 | 0.292 | 0.313 | 0.629 | 0.607 | 0.615 | 0.356 | 0.303 |
| HCC-366 | 1.01 | 1.01 | 0.903 | 0.986 | 1.06 | 0.136 | 0.186 | 0.123 | 0.128 | 0.18 | 0.897 | 0.988 | 1.03 | 0.445 | 0.613 | 0.329 | 0.369 | 0.401 | 0.175 | 0.134 |
| EMC-BAC-2 | 0.819 | 0.905 | 0.814 | 0.837 | 0.904 | 0.485 | 0.523 | 0.505 | 0.471 | 0.507 | 0.921 | 0.856 | 0.889 | 0.703 | 0.604 | 0.802 | 0.708 | 0.69 | 0.542 | 0.374 |
| NCI-H2405 | 0.741 | 0.766 | 0.773 | 0.822 | 0.893 | 0.256 | 0.21 | 0.278 | 0.259 | 0.254 | 1.03 | 1.11 | 1.01 | 0.735 | 0.393 | 0.683 | 0.647 | 0.646 | 0.359 | 0.273 |
| NCI-H358 | 0.408 | 0.474 | 0.416 | 0.371 | 0.435 | 0.3 | 0.332 | 0.355 | 0.313 | 0.371 | 0.443 | 0.439 | 0.379 | 0.304 | 0.267 | 0.951 | 0.786 | 0.718 | 0.3 | 0.18 |
| NCI-H1944 | 0.811 | 0.8 | 0.9 | 0.76 | 0.759 | 0.343 | 0.372 | 0.346 | 0.344 | 0.334 | 0.808 | 0.814 | 0.758 | 0.412 | 0.378 | 0.898 | 0.796 | 0.72 | 0.384 | 0.279 |
